These results are taken from ChEMBL document CHEMBL3867487, “Discovery of 2'-α-C-Methyl-2'-β-C-fluorouridine Phosphoramidate Prodrugs as Inhibitors of Hepatitis C Virus” (ACS Med Chem Lett, 2016).

In general, EC50 refers to the concentration giving half of the maximal effect. One may read the CC50 as the concentration at which the toxic effect on the cells reaches its halfway point. A lower CC50 goes with greater toxicity to the cells. The EC90 is the concentration at which the effect reaches the 90% level.

Series [1] relates to Hepatitis C virus. As to the kind of experiment: Antiviral activity against HCV JFH-1 infected in human HuH7.5.1 cells after 48 hrs by luciferase reporter gene assay. The conditions noted are these: genotype 2a JFH-1, Huh-7, 48 h. The series is classed as functional, cell-based, Hepacivirus hominis. A general note: In a reporter assay the amount or activity of a reporter protein is the signal.

Series [2] is described as follows: Cytotoxicity against human Huh7.5.1 cells after 48 hrs by luciferase reporter gene assay. The series is classed as toxicity, cell-based, Huh-7.
The test system of series [3] is Hepatitis C virus. The series is described as follows: Antiviral activity against HCV infected in human Huh7 cells assessed as reduction in viral RNA replication after 4 days. The class given is functional, cell-based, Hepacivirus hominis. The settings on record: Huh-7, 96 h.

On to `COC(=O)[C@H](C)NP(=O)(OC[C@H]1O[C@@H](n2ccc(=O)[nH]c2=O)[C@@](C)(F)[C@@H]1O)Oc1ccccc1` (some centres undefined), for which, in series [1], the EC50 is above 50 µM. For the same molecule, the CC50 at 48 h in series [2] is above 100 µM.

As for `C[C@H](NP(=O)(OC[C@H]1O[C@@H](n2ccc(=O)[nH]c2=O)[C@@](C)(F)[C@@H]1O)Oc1ccccc1)C(=O)OCc1ccccc1` (some centres undefined), the EC50 in series [1] is above 50 µM. This molecule came in with a CC50 at 48 h in series [2] above 100 µM.

In turn, `CC(C)OC(=O)[C@@H](C)NP(=O)(OC[C@H]1O[C@@H](n2ccc(=O)[nH]c2=O)[C@@](C)(F)[C@@H]1O)Oc1ccccc1` (some centres undefined) had a 50% effective concentration (EC50) in series [1] of 34.3 µM. This molecule also returned a half-maximal cytotoxic concentration (CC50) at 48 h in series [2] above 100 µM.

`CC(C)OC(=O)[C@@H](Cc1c[nH]c2ccccc12)NP(=O)(OC[C@H]1O[C@@H](n2ccc(=O)[nH]c2=O)[C@@](C)(F)[C@@H]1O)Oc1ccccc1` (some centres undefined) displayed an EC50 in series [1] of 0.88 µM. This molecule yielded a 50% cytotoxic concentration (CC50) at 48 h in series [2] above 100 µM.

`C[C@H](NP(=O)(OC[C@H]1O[C@@H](n2ccc(=O)[nH]c2=O)[C@@](C)(F)[C@@H]1O)Oc1ccccc1)C(=O)OC1CCCCC1` (some centres undefined) came in with an EC50 in series [1] above 50 µM. The molecule also yielded a CC50 at 48 h in series [2] above 100 µM.

Regarding `CCCOC(=O)[C@H](C)NP(=O)(OC[C@H]1O[C@@H](n2ccc(=O)[nH]c2=O)[C@@](C)(F)[C@@H]1O)Oc1ccccc1` (some centres undefined), the EC50 in series [1] is above 50 µM. In series [2], this molecule displayed a CC50 at 48 h above 100 µM.

Take `CCOC(=O)[C@H](C)NP(=O)(OC[C@H]1O[C@@H](n2ccc(=O)[nH]c2=O)[C@@](C)(F)[C@@H]1O)Oc1ccccc1` (some centres undefined): in series [1], the EC50 is above 50 µM. The CC50 at 48 h in series [2] was above 100 µM.

`CC(C)OC(=O)[C@@H](Cc1ccccc1)NP(=O)(OC[C@H]1O[C@@H](n2ccc(=O)[nH]c2=O)[C@@](C)(F)[C@@H]1O)Oc1ccccc1` (some centres undefined) came in with an EC50 in series [1] of 35.3 µM. In addition, in series [2], the CC50 at 48 h is above 100 µM.

As to `CC(C)OC(=O)[C@H](NP(=O)(OC[C@H]1O[C@@H](n2ccc(=O)[nH]c2=O)[C@@](C)(F)[C@@H]1O)Oc1ccccc1)C(C)C` (some centres undefined), in series [1], the midpoint of the response, the EC50, lay at 1.82 µM. The molecule further returned a CC50 at 48 h in series [2] above 100 µM.

Regarding `CC(C)OC(=O)[C@H](C)N[P@](=O)(OC[C@H]1O[C@@H](n2ccc(=O)[nH]c2=O)[C@](C)(F)[C@@H]1O)Oc1ccccc1` [SOFOSBUVIR], the EC90 in series [3] was found to be 0.42 µM. In series [1], this molecule registered a half-maximal effective concentration (EC50) of 0.12 µM. In series [2], the CC50 at 48 h is above 100 µM.

In turn, `C[C@]1(F)[C@H](O)[C@@H](CO)O[C@H]1n1ccc(=O)[nH]c1=O` yielded an EC50 in series [1] of 14.7 µM. This molecule also registered a CC50 at 48 h in series [2] above 100 µM.

Regarding `CSCC[C@H](NP(=O)(OC[C@H]1O[C@@H](n2ccc(=O)[nH]c2=O)[C@@](C)(F)[C@@H]1O)Oc1ccccc1)C(=O)OC(C)C` (some centres undefined), in series [1], the EC50 was determined as 2.24 µM. Also, in series [2], the half-maximal cytotoxic concentration (CC50) at 48 h was above 100 µM.

For the molecule `CCCCOC(=O)[C@H](C)NP(=O)(OC[C@H]1O[C@@H](n2ccc(=O)[nH]c2=O)[C@@](C)(F)[C@@H]1O)Oc1ccccc1` (some centres undefined), the concentration giving a half-maximal response (EC50) in series [1] is above 50 µM. The molecule further gave a CC50 at 48 h in series [2] above 100 µM.

As to `C[C@@]1(F)[C@H](O)[C@@H](CO)O[C@H]1n1ccc(N)nc1=O`, the EC50 in series [3] is 4.5 µM.

For the molecule `CC(C)OC(=O)[C@H](Cc1ccccc1)NP(=O)(OC[C@H]1O[C@@H](n2ccc(=O)[nH]c2=O)[C@@](C)(F)[C@@H]1O)Oc1ccccc1` (some centres undefined), in series [1], the EC50 amounted to 33.3 µM. Besides, in series [2], the CC50 at 48 h is above 100 µM.

In series [1], `CCCCCCOC(=O)[C@H](C)NP(=O)(OC[C@H]1O[C@@H](n2ccc(=O)[nH]c2=O)[C@@](C)(F)[C@@H]1O)Oc1ccccc1` (some centres undefined) returned an EC50 above 50 µM. The same molecule gave a CC50 at 48 h in series [2] above 100 µM.

Regarding `CCCCCOC(=O)[C@H](C)NP(=O)(OC[C@H]1O[C@@H](n2ccc(=O)[nH]c2=O)[C@@](C)(F)[C@@H]1O)Oc1ccccc1` (some centres undefined), the EC50 in series [1] was above 50 µM. The molecule further gave a CC50 at 48 h in series [2] above 100 µM.

For `CC(C)OC(=O)[C@H](C)NP(=O)(OC[C@H]1O[C@@H](n2ccc(=O)[nH]c2=O)[C@@](C)(F)[C@@H]1O)Oc1ccccc1` (some centres undefined), a half-maximal response in series [1] (EC50) required 34.2 µM. The molecule also came in with a CC50 at 48 h in series [2] above 100 µM.

In the case of `CC(C)OC(=O)CNP(=O)(OC[C@H]1O[C@@H](n2ccc(=O)[nH]c2=O)[C@@](C)(F)[C@@H]1O)Oc1ccccc1` (some centres undefined), a half-maximal effect in series [1] (EC50) was put at 22.9 µM. In addition, the 50% cytotoxic concentration (CC50) at 48 h in series [2] was above 100 µM.

With `CSCC[C@@H](NP(=O)(OC[C@H]1O[C@@H](n2ccc(=O)[nH]c2=O)[C@@](C)(F)[C@@H]1O)Oc1ccccc1)C(=O)OC(C)C` (some centres undefined), the EC50 in series [1] is above 50 µM. The same molecule gave a CC50 at 48 h in series [2] above 100 µM.

`CC(C)OC(=O)[C@@H](NP(=O)(OC[C@H]1O[C@@H](n2ccc(=O)[nH]c2=O)[C@@](C)(F)[C@@H]1O)Oc1ccccc1)C(C)C` (some centres undefined) displayed an EC50 in series [1] above 50 µM. Further, in series [2], the CC50 at 48 h was above 100 µM.

The molecule `CC(C)OC(=O)[C@H](Cc1c[nH]c2ccccc12)NP(=O)(OC[C@H]1O[C@@H](n2ccc(=O)[nH]c2=O)[C@@](C)(F)[C@@H]1O)Oc1ccccc1` (some centres undefined) had an EC50 in series [1] above 50 µM. The molecule further had a CC50 at 48 h in series [2] above 100 µM.
